According to US9309225B2, “N-((1-benzyl-1H-1,2,3-triazol-4-yl)methyl)arylamide compounds as potential anticancer agents and a process for the preparation thereof” (COUNCIL OF SCIENTIFIC & INDUSTRIAL RESEARCH, priority 2013, dated 2016):

Columns and labels:
SNB-75 = experiment: NCI sixty human tumor cell line screen, CNS panel; assay type: cell-based; conditions: SNB-75, CNS, NCI protocol
Description: (§1) The in vitro anticancer activity studies for these N-((1-benzyl-1H-1,2,3-triazol-4-yl)methyl) arylamide analogues were carried out at the National Cancer Institute, USA.
(§2) The N-((1-benzyl-1H-1,2,3-triazol-4-yl)methyl)arylamide analogues have been tested at NCI, USA, against sixty human tumor cell lines derived from nine cancer types (leukemia, non-small cell lung cancer, colon cancer, CNS cancer, melanoma cancer, ovarian cancer, renal cancer, prostate cancer and breast cancer). For these compounds results are expressed as growth inhibition (GI50) values as per NCI protocol.

U251 = experiment: NCI sixty human tumor cell line screen, CNS panel; assay type: cell-based; conditions: U-251, NCI protocol
Description: as §1, §2

SF-295 = experiment: NCI sixty human tumor cell line screen, CNS panel; assay type: cell-based; conditions: SF-295, CNS, NCI protocol
Description: as §1, §2

SNB-19 = experiment: NCI sixty human tumor cell line screen, CNS panel; assay type: cell-based; conditions: SNB-19, CNS, NCI protocol
Description: as §1, §2

SF-268 = experiment: NCI sixty human tumor cell line screen, CNS panel; assay type: cell-based; conditions: SF-268, CNS, NCI protocol
Description: as §1, §2

SF-539 = experiment: NCI sixty human tumor cell line screen, CNS panel; assay type: cell-based; conditions: SF-539, CNS, NCI protocol
Description: as §1, §2

MDA-MB-468 = experiment: NCI sixty human tumor cell line screen, Breast panel; assay type: cell-based; conditions: MDA-MB-468, Breast, NCI protocol
Description: as §1, §2

T-47D = experiment: as above; assay type: cell-based; conditions: T47D, NCI protocol
Description: as §1, §2

MDA-MB-31/ATCC = experiment: as above; assay type: cell-based; conditions: NCI protocol
Description: as §1, §2

BT-549 = experiment: as above; assay type: cell-based; conditions: BT-549, Breast, NCI protocol
Description: as §1, §2

HOP-62 = experiment: NCI sixty human tumor cell line screen, Non-small-cell-lung panel; assay type: cell-based; conditions: HOP-62, Non-small-cell-lung, NCI protocol
Description: as §1, §2

EKVX = experiment: as above; assay type: cell-based; conditions: NCI protocol
Description: as §1, §2

NCI-H522 = experiment: as above; assay type: cell-based; conditions: NCI protocol
Description: as §1, §2

NCI-H226 = experiment: as above; assay type: cell-based; conditions: NCI protocol
Description: as §1, §2

A549/ATCC = experiment: as above; assay type: cell-based; conditions: NCI protocol
Description: as §1, §2

NCI-H460 = experiment: as above; assay type: cell-based; conditions: NCI protocol
Description: as §1, §2

KM12 = experiment: NCI sixty human tumor cell line screen, Colon panel; assay type: cell-based; conditions: NCI protocol
Description: as §1, §2

SW-620 = experiment: as above; assay type: cell-based; conditions: SW-620, Colon, NCI protocol
Description: as §1, §2

HT29 = experiment: as above; assay type: cell-based; conditions: HT-29, NCI protocol
Description: as §1, §2

COLO 205 = experiment: as above; assay type: cell-based; conditions: COLO 205, Colon, NCI protocol
Description: as §1, §2

HCT-116 = experiment: as above; assay type: cell-based; conditions: HCT-116, Colon, NCI protocol
Description: as §1, §2

PC-3 = experiment: NCI sixty human tumor cell line screen, Prostate panel; assay type: cell-based; conditions: PC-3, Prostate, NCI protocol
Description: as §1, §2

DU-145 = experiment: as above; assay type: cell-based; conditions: DU-145, Prostate, NCI protocol
Description: as §1, §2

OVCAR-8 = experiment: NCI sixty human tumor cell line screen, Ovarian panel; assay type: cell-based; conditions: OVCAR-8, Ovarian, NCI protocol
Description: as §1, §2

NCI/ADR-RES = experiment: as above; assay type: cell-based; conditions: NCI protocol
Description: as §1, §2

OVCAR-4 = experiment: as above; assay type: cell-based; conditions: OVCAR-4, Ovarian, NCI protocol
Description: as §1, §2

OVCAR-3 = experiment: as above; assay type: cell-based; conditions: OVCAR-3, Ovarian, NCI protocol
Description: as §1, §2

SK-OV-3 = experiment: as above; assay type: cell-based; conditions: SK-OV-3, Ovarian, NCI protocol
Description: as §1, §2

SK-MEL-5 = experiment: NCI sixty human tumor cell line screen, Melanoma panel; assay type: cell-based; conditions: SK-MEL-5, Melanoma, NCI protocol
Description: as §1, §2

UACC-62 = experiment: as above; assay type: cell-based; conditions: UACC-62, Melanoma, NCI protocol
Description: as §1, §2

MDA-MB-435 = experiment: as above; assay type: cell-based; conditions: MDA-MB-435, Melanoma, NCI protocol
Description: as §1, §2

SK-MEL-28 = experiment: as above; assay type: cell-based; conditions: SK-MEL-28, Melanoma, NCI protocol
Description: as §1, §2

M14 = experiment: as above; assay type: cell-based; conditions: NCI protocol
Description: as §1, §2

LOX IMVI = experiment: as above; assay type: cell-based; conditions: NCI protocol
Description: as §1, §2

SK-MEL-2 = experiment: as above; assay type: cell-based; conditions: SK-MEL-2, Melanoma, NCI protocol
Description: as §1, §2

CAKI-1 = experiment: NCI sixty human tumor cell line screen, Renal panel; assay type: cell-based; conditions: CAKI-1, Renal, NCI protocol
Description: as §1, §2

SN12C = experiment: as above; assay type: cell-based; conditions: NCI protocol
Description: as §1, §2

A498 = experiment: as above; assay type: cell-based; conditions: NCI protocol
Description: as §1, §2

UO-31 = experiment: as above; assay type: cell-based; conditions: UO-31, Renal, NCI protocol
Description: as §1, §2

ACHN = experiment: as above; assay type: cell-based; conditions: NCI protocol
Description: as §1, §2

RXF 393 = experiment: as above; assay type: cell-based; conditions: RXF 393, Renal, NCI protocol
Description: as §1, §2

TK-10 = experiment: as above; assay type: cell-based; conditions: TK-10, Renal, NCI protocol
Description: as §1, §2

COc1ccc(Nc2ncccc2C(=O)NCc2cn(Cc3cccc(Oc4ccccc4)c3)nn2)c(OC)c1 [Compound 1g, 2-(2,4-Dimethoxyphenylamino)-N-((1-(3-phenoxybenzyl)-1H-1,2,3-triazol-4-yl)methyl) nicotinamide]
GI50 (SNB-75): 3.41 µM
GI50 (U251): 3.6 µM
GI50 (SF-295): 0.56 µM
GI50 (SNB-19): 3.33 µM
GI50 (SF-268): 3.88 µM
GI50 (SF-539): 2.65 µM
GI50 (MDA-MB-468): 1.46 µM
GI50 (T-47D): 4.28 µM
GI50 (MDA-MB-31/ATCC): 5.54 µM
GI50 (BT-549): 3.51 µM
GI50 (HOP-62): 12.7 µM
GI50 (EKVX): 5.09 µM
GI50 (NCI-H522): 1.82 µM
GI50 (NCI-H226): 2.24 µM
GI50 (A549/ATCC): 4.15 µM
GI50 (NCI-H460): 3.05 µM
GI50 (KM12): 1.65 µM
GI50 (SW-620): 2.12 µM
GI50 (HT29): 3.26 µM
GI50 (COLO 205): 2.14 µM
GI50 (HCT-116): 3.08 µM
melting point: 127 to 129 °C
GI50 (PC-3): 0.62 µM
GI50 (DU-145): 3.37 µM
GI50 (OVCAR-8): 4.1 µM
GI50 (NCI/ADR-RES): 2.12 µM
GI50 (OVCAR-4): 5.11 µM
GI50 (OVCAR-3): 1.54 µM
GI50 (SK-OV-3): 2.59 µM
GI50 (SK-MEL-5): 0.72 µM
GI50 (UACC-62): 1.43 µM
GI50 (MDA-MB-435): 0.25 µM
GI50 (SK-MEL-28): 2.6 µM
GI50 (M14): 2.13 µM
GI50 (LOX IMVI): 3.01 µM
GI50 (SK-MEL-2): 7.67 µM
GI50 (CAKI-1): 1.71 µM
GI50 (SN12C): 1.71 µM
GI50 (A498): 1.01 µM
GI50 (UO-31): 8.06 µM
GI50 (ACHN): 4.83 µM
GI50 (RXF 393): 7.83 µM
GI50 (TK-10): 3.14 µM

O=C(NCc1cn(Cc2cccc(Oc3ccccc3)c2)nn1)c1cccnc1NCc1ccc(Cl)cc1 [Compound 1k, 2-(4-Chlorobenzylamino)-N-((1-(3-phenoxybenzyl)-1H-1,2,3-triazol-4-yl)methyl) nicotinamide]
GI50 (SNB-75): 2.02 µM
GI50 (U251): 2.66 µM
GI50 (SF-295): 2.8 µM
GI50 (SNB-19): 3.91 µM
GI50 (SF-268): 4.82 µM
GI50 (SF-539): 2.24 µM
GI50 (MDA-MB-468): 3.44 µM
GI50 (T-47D): 3.2 µM
GI50 (MDA-MB-31/ATCC): 2.29 µM
GI50 (BT-549): 2.72 µM
GI50 (HOP-62): 5.69 µM
GI50 (EKVX): 3.65 µM
GI50 (NCI-H522): 2.18 µM
GI50 (NCI-H226): 3.66 µM
GI50 (A549/ATCC): 3.21 µM
GI50 (NCI-H460): 2.85 µM
GI50 (KM12): 3.62 µM
GI50 (SW-620): 4.04 µM
GI50 (HT29): 2.96 µM
GI50 (COLO 205): 2.18 µM
GI50 (HCT-116): 3.18 µM
melting point: 209 to 211 °C
GI50 (PC-3): 2.96 µM
GI50 (DU-145): 4 µM
GI50 (OVCAR-8): 3.63 µM
GI50 (NCI/ADR-RES): 2.86 µM
GI50 (OVCAR-4): 3.37 µM
GI50 (OVCAR-3): 3.48 µM
GI50 (SK-OV-3): 3.32 µM
GI50 (SK-MEL-5): 2.53 µM
GI50 (UACC-62): 2.08 µM
GI50 (MDA-MB-435): 2.33 µM
GI50 (SK-MEL-28): 2.95 µM
GI50 (M14): 2.49 µM
GI50 (LOX IMVI): 3.9 µM
GI50 (SK-MEL-2): 4.44 µM
GI50 (CAKI-1): 4.36 µM
GI50 (SN12C): 3.44 µM
GI50 (A498): 2.12 µM
GI50 (UO-31): 3 µM
GI50 (ACHN): 4.03 µM
GI50 (RXF 393): 2.19 µM
GI50 (TK-10): 3.7 µM
